Measurements as given in patent EP0606463B1, “NEUROMEDIN B RECEPTOR ANTAGONISTS” (The Administrators of The Tulane Educational Fund, priority 1992, dated 1994).
Like-named read-outs stand apart in the source and are kept apart here. One block for each compound: values may come before it. Where a SMILES comes first, the peptide text is derived from it. Bridges are numbered along the chain shown (N, C = ends). [ ]: non-standard residue; d: D form. 2Nal = N[C@@H](Cc1ccc2ccccc2c1)C(=O)O; d2Nal = N[C@H](Cc1ccc2ccccc2c1)C(=O)O

Tests used:
[1] = biological target: T1, NMB receptors on C-6 cells (Rattus norvegicus, UniProt P24053); experiment: Binding of 125I-[D-Tyr0]NMB to C-6 glioblastoma cells; conditions: NMB Receptor, Ki by method of Cheng, read-out: Ki(nM) ^123I-NMB Binding
T1 construct: endogenous in cells; host or cells: rat glioblastoma C-6 cells
Procedure: Binding studies using rat glioblastoma C-6 or NMB-R transfected cells were performed as described previously [Benya, R. V. et al. Mol. Pharmacol. 42:1058 (1992); and Wang, L-H. et al. Biochem. J. 286:641 (1992)] by suspending disaggregated cells in binding buffer, which was composed of standing buffer ([…], 7.7 mM KCl, 1.0 mM EGTA, 0.02% soybean trypsin inhibitor) additionally containing 50 mM HEPES, 1 mM MgCl2, 1.5 mM CaCl2, 2.2 mM KH2PO4, 0.015% glutamine, and 0.2% BSA (w\v) (pH 7.4). Incubations contained 75 pM ^125I-[D-Tyr^0]NMB and 15 x 10^6 C-6 cells/ml or 2 x 10^6 NMB-R transfected cells/ml, for 60 min at 22°C. Nonsaturable binding of ^125I-[D-Tyr^0]NMB was te amount of radioactivity associated with C-6 cells or NMB-R transfected cells when the incubation mixture contained […]. Nonsaturable binding was < 15% of total binding in all experiments; all values are reported herein as saturable binding (i.e., total minus nonsaturable binding).

[2] = biological target: T2, rat NMB receptor (Rattus norvegicus, UniProt P24053); experiment: Binding of 125I-[D-Tyr0]NMB to NMB-R transfected BALB 3T3 cells
T2 construct: a full length NMB-preferring bombesin receptor clone generated from rat esophagus; expressed in transfected cells; host or cells: BALB 3T3 cells
T2 sequence (P24053 1-390): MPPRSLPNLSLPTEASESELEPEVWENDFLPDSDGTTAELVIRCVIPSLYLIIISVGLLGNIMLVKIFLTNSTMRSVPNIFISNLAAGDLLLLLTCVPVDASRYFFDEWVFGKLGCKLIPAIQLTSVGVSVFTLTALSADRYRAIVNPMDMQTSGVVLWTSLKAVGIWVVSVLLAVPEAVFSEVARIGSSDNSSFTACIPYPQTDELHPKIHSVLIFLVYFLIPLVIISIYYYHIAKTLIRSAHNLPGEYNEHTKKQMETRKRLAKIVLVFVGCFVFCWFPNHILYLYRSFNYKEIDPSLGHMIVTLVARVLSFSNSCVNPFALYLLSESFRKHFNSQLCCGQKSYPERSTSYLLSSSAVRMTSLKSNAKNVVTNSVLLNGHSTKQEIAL
Procedure: (§1) Cells were passaged every 3-4 days at confluence, using 0.1% trypsin in 1 mM EDTA. Rat glioblastoma C-6 tumor cells were maintained similarly and were passaged weekly at confluence. Both cell lines were cultured at 37°C in a 5% CO2 atmosphere. Rat AR 42J pancreatic acinar cells were cultured in Dulbecco's modified Eagle's medium (DMEM) without antibiotics and supplemented with 10% (vol/vol) fetal calf serum. The incubation atmosphere consisted of 10% CO2-90% humidified air at 37°C.

[3] = biological target: T3, NMB Receptor (Rattus norvegicus, UniProt P24053); experiment: [3H]inositol phosphates (IP) in NMB-R transfected cells; assay type: cell-based
T3 construct: a full length NMB-preferring bombesin receptor clone generated from rat esophagus; expressed in transfected cells; host or cells: BALB 3T3 cells
T3 sequence (P24053 1-390): T2 sequence (P24053 1-390)
Procedure: as §1, with “As described previously [Wada, E., et al. Neuron 6:421 (1991)], BALB 3T3 cells expressing a stably transfected rat NMB receptor (NMB-R transfected cells) were obtained using calcium phosphate precipitation of a full length NMB-preferring bombesin receptor clone generated from rat esophagus and subcloned into a modified version of the pCD2 plasmid. Cells” for “Cells”
(§2) Total phosphoinositides in C-6 cells and in NMB-R transfected cells were determined as described previously, with minor modifications [Benya, R. V. et al. Mol. Pharmacol. 42:1058 (1992); and Wang, L-H. et al. Biochem. J. 286:641 (1992)]. Cells were grown to confluence in 24-well plates and then loaded with 100 µCi/ml myo-[2-^3H]inositol in Dulbecco's modified essential medium with 2% fetal bovine serum at 37°C for 48 hrs. Cells were washed and incubated in phosphoinositide buffer (standard buffer additionally containing 10 mM LiCl, 20 mM HEPES, 2 mM CaCl2, 2% BSA, and 1.2 mM MgSO4) for 15 min and then for 60 min at 37°C with agonists at various concentrations or with 3 nM NMB (a half-maximal effective concentration) and possible antagonists at different concentrations. Reactions were halted using ice-cold 1% HCl in methanol, and the inositol phosphates (IP) were isolated as described previously [Bologna, M. et al. Cancer 63:1714 (1989); and Endo, T. et al. J. Endocrinol. 131:313 (1991)]. Briefly, after loading of the anion exchange column, free [^3H]glycerophosphorylinositol was removed by washing with 5 mM disodium tetraborate in 60 mM sodium formate. Total [^3H]inositol phosphates were then eluted using 100 mM formic acid in 1.0 M ammonium formate as described previously [Benya, R. V. et al. Mol. Pharmacol. 42:1058 (1992); and Wang, L-H. et al. Biochem. J. 286:641 (1992)].

[4] = biological target: T4, GRP Receptor (Rattus norvegicus, UniProt P52500); experiment: Amylase release from rat pancreatic acini; assay type: cell-based
T4 construct: from tissue; host or cells: dispersed pancreatic acini
T4 sequence (P52500 whole entry): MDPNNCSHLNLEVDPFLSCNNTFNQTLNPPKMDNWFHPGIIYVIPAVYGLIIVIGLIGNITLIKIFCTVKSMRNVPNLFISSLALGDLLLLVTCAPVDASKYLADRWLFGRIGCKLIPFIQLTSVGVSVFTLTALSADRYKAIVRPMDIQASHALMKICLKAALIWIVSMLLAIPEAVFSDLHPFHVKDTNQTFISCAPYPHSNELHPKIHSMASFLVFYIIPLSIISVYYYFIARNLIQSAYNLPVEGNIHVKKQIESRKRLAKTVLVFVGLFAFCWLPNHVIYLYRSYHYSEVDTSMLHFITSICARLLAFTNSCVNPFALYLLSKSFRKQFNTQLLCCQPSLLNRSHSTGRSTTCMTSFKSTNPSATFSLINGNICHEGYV

[5] = biological target: T5, GRP receptors on rat pancreatic acini (Rattus norvegicus, UniProt P52500); experiment: Binding of 125I-[Tyr4]bombesin to pancreatic acini; conditions: read-out: Ki (nM) ^123I[Tyr^4]BnBinding
T5 construct: from tissue; host or cells: dispersed pancreatic acini
T5 sequence (P52500 whole entry): as above
Source text: Nonsaturable binding was < 10% of total binding in all experiments.

[6] = biological target: T6, somatostatin receptors on AR 42J cells (Rattus norvegicus, UniProt P30680); experiment: Somatostatin membrane receptor assay (AR 42J cell membranes); assay type: binding; conditions: for inhibition of binding of ^125I-[Tyr^11]SS-14 to somatostatin receptors: AR 42J cells, concentrations up to 10 µM
T6 construct: endogenous in cells; host or cells: rat AR 42J pancreatic acinar cells (membranes)
T6 sequence (P30680 whole entry): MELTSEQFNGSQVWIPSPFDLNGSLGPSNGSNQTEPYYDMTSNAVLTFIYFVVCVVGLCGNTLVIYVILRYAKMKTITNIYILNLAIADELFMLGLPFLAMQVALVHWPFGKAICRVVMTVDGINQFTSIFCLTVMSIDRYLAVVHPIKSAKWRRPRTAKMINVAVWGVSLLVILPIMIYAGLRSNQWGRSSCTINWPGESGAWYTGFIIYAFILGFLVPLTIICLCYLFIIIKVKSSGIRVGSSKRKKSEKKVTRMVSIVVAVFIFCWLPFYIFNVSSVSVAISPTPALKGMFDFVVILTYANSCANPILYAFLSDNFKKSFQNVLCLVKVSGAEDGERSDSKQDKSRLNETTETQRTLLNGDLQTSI

[7] = biological target: T7, GRP receptors on AR 42J cell membranes (Rattus norvegicus, UniProt P52500); experiment: GRP membrane receptor assay (AR 42J cell membranes); assay type: binding; conditions: method of Cheng, unit inferred, read-out: affinity, ^125I-[Tyr^4]Bn
T7 construct: endogenous in cells; host or cells: rat AR 42J pancreatic acinar cells (membranes)
T7 sequence (P52500 whole entry): as the sequence (P52500 whole entry) above

[8] = biological target: T8, NMB receptors on rat olfactory bulb membranes (Rattus norvegicus, UniProt P24053); experiment: NMB membrane receptor assay (rat olfactory bulb membranes); assay type: binding; conditions: Rat Olfactory bulb membranes; method of Cheng; unit inferred; read-out: affinity, ^125I-NMB
T8 construct: Membranes were prepared from rat olfactory bulb (NMB membrane receptor assay); from tissue; host or cells: rat olfactory bulb membranes
T8 sequence (P24053 1-390): T2 sequence (P24053 1-390)

[9] = biological target: T9, mu opioid receptors (Rattus norvegicus, UniProt P33535); experiment: mu opioid membrane assay ([3H]DAGO, rat forebrain membranes); assay type: binding; conditions: for inhibition of binding to mu opioid receptors: rat forebrain membranes, concentrations up to 10 µM
T9 construct: rat forebrain (TRH, mu and delta opioid membrane assays); from tissue; host or cells: rat forebrain membranes
T9 sequence (P33535 whole entry): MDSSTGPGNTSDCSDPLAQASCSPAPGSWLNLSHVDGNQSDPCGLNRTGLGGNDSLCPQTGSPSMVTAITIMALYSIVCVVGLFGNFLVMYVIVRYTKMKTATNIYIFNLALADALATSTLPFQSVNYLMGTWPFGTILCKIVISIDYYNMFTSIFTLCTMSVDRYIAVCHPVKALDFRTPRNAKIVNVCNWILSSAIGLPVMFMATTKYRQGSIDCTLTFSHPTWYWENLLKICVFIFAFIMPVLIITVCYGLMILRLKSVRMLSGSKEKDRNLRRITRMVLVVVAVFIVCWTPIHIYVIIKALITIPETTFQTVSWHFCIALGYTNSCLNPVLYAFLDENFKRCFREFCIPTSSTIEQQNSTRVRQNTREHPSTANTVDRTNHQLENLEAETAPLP

[10] = biological target: T10, NMB receptors on C-6 glioblastoma cells (Rattus norvegicus, UniProt P24053); experiment: NMB-stimulated [3H]IP in C-6 glioblastoma cells; assay type: cell-based; conditions: C-6 glioblastoma cells; agonist without analog; basal 7.2±1.0
T10 construct: endogenous in cells; host or cells: rat glioblastoma C-6 cells
T10 sequence (P24053 1-390): T2 sequence (P24053 1-390)
Procedure: as §2, with “for 60 min at 37°C with agonists at various concentrations or with 3 nM NMB (a half-maximal effective concentration) and possible antagonists at different concentrations.” left out

[11] = NMB Receptor, Transfected Cells, Ki by method of Cheng, read-out: Ki (nM) ^123I-NMB Binding
[12] = NMB Receptor, Transfected Cells, read-out: IC50 (nM) NMB-stimulated [^3H]IP

Ki [1]: 997 ± 76 nM
Ki [2, 11]: 697 ± 64 nM
Ki ([2]; NMB-R transfected cells, summary of Table 1, read-out: K1): 700 to 800 nM
fold by which cyclo SS-octa was more potent than the analog ([2]; inhibition of ^125I-[Tyr^0]NMB binding to NMB-R transfected cells): 4 fold
IC50 [3, 12]: 2880 ± 188 nM
IC50 ([3]; NMB-R transfected cells, summary of Table 1, read-out: IC50 of NMB-stimulated increases in [^3H]IP): 3000 to 6600 nM
NMB-R Transfected Cells [^3H]IP Alone (10 µ M) ([3]; analog 10 µM alone, no-additive control 13 ± 3): 11 ± 1 dpm x 10^3
NMB-R Transfected Cells [^3H]IP Plus NMB (3 nM) ([3]; analog 10 µM plus NMB 3 nM, NMB without analog 186 ± 58): 65 ± 15 dpm x 10^3
IC50 [4]: > 10000 nM
Rat Pancreatic Acini Amylase Release Alone (10µM) ([4]; analog 10 µM alone, no-additive control 4 ± 1): 3 ± 1 % total
Rat Pancreatic Acini Amylase Release Plus Bn(0.3 nM) ([4]; analog 10 µM plus Bn 0.3 nM, Bn without analog 15 ± 1): 15 ± 1 % total
Ki [5]: > 10000 nM
SMILES: NCCCC[C@@H]1NC(=O)[C@@H](Cc2c[nH]c3ccccc23)NC(=O)[C@H](Cc2ccc(O)cc2)NC(=O)[C@@H](NC(=O)[C@H](N)Cc2ccc3ccccc3c2)CSSC[C@@H](C(=O)N[C@@H](Cc2ccc3ccccc3c2)C(N)=O)NC(=O)[C@H](Cc2ccc3ccccc3c2)NC1=O [Analog #3, [Nal^6]-cyclo SS-octa] (H-[d2Nal]CY[dW]K[2Nal]C[2Nal]-NH2; disulfide 2-7)

SMILES: CC(C)[C@@H]1NC(=O)[C@H](CCCCN)NC(=O)[C@@H](Cc2c[nH]c3ccccc23)NC(=O)[C@H](Cc2ccc(O)cc2)NC(=O)[C@@H](NC(=O)[C@H](N)Cc2ccc3ccccc3c2)CSSC[C@@H](C(=O)N[C@H](C(N)=O)[C@@H](C)O)NC1=O [Analog #5, [Thr^8]-cyclo-SS-octa]
Ki [1]: 3790 ± 1080 nM
Ki ([2]; K1, NMB-R transfected cells, summary of Table 1): 14000 to 19000 nM
Ki [2, 11]: 14800 ± 2650 nM
IC50 [3, 12]: > 10000 nM
effect on NMB-stimulated increase in [^3H]IP ([3]; NMB-R transfected cells, 3 nM NMB, peptide 10 µM): no activity
IC50 [4]: > 10000 nM
Ki [5]: > 10000 nM
Ki ([6]; AR 42J Cell Membranes, method of Cheng, unit inferred, read-out: affinity, ^125I-[Tyr^11]SS-14): 0.00029 ± 3e-05 µM
Ki [7]: 3.9 ± 1.2 µM
Ki [8]: 0.8 ± 0.2 µM
Ki ([9]; Rat Forebrain membranes, method of Cheng, unit inferred, read-out: affinity, [^3H]DAGO): 0.002 ± 0.0014 µM

SMILES: CSCC[C@H](NC(=O)[C@H](CC(C)C)NC(=O)[C@H](Cc1c[nH]cn1)NC(=O)CNC(=O)[C@@H](NC(=O)[C@H](C)NC(=O)[C@H](Cc1c[nH]c2ccccc12)NC(=O)[C@H](Cc1c[nH]cn1)NC(=O)[C@H](CC(N)=O)NC(=O)CNC(=O)[C@H](CCCNC(=N)N)NC(=O)[C@@H]1CCCN1C(=O)[C@H](Cc1ccc(O)cc1)NC(=O)[C@H](CCSC)NC(=O)[C@H](CCCCN)NC(=O)[C@@H](NC(=O)[C@H](CC(C)C)NC(=O)[C@@H](NC(=O)[C@@H](NC(=O)CNC(=O)CNC(=O)CNC(=O)[C@H](C)NC(=O)[C@@H]1CCCN1C(=O)[C@H](CC(C)C)NC(=O)[C@@H]1CCCN1C(=O)[C@@H](N)C(C)C)[C@@H](C)O)C(C)C)[C@@H](C)O)C(C)C)C(N)=O [GRP, gastrin-releasing peptide]
inhibition of binding of ^125I-[Tyr^11]SS-14 to somatostatin receptors [6]: Neither NMB nor GRP at concentrations up to 10 µ M inhibited binding
inhibition of binding to mu opioid receptors [9]: Neither NMB nor GRP at concentrations up to 10 µ M inhibited binding

SMILES: CSCC[C@H](NC(=O)[C@H](Cc1ccccc1)NC(=O)[C@H](Cc1c[nH]cn1)NC(=O)CNC(=O)[C@@H](NC(=O)[C@H](C)NC(=O)[C@H](Cc1c[nH]c2ccccc12)NC(=O)[C@H](CC(C)C)NC(=O)[C@H](CC(N)=O)NC(=O)CN)[C@@H](C)O)C(N)=O [NMB, neuromedin B]
increase in [^3H]IP caused by 3 nM NMB ([3]; NMB-R transfected cells): 14 fold
[^3H]IP, NMB (10 nM) Alone [10]: 21.0 ± 1.8 dpm x 10^3
inhibition of binding of ^125I-[Tyr^11]SS-14 to somatostatin receptors [6]: Neither NMB nor GRP at concentrations up to 10 µ M inhibited binding
inhibition of binding to mu opioid receptors [9]: Neither NMB nor GRP at concentrations up to 10 µ M inhibited binding
